Laboratory results taken from patent publication US7834148B2, “Protein phosphorylation imaging systems, methods of making phosphorylation imaging systems, and methods of use thereof” (Stanford University, priority 2006, dated 2010).

Columns and labels:
[1] = test system: Akt kinase; test: In vitro Akt kinase assay in cell lysates using purified GSK-3β as substrate; assay type: cell-based, human; conditions: LY 24 hours or perifosine 6 hours
Method: Complemented FL activities were determined by bioluminescence imaging of intact cells while Akt phosphorylation status/kinase activities in cell lysates were determined by phosphorylation-specific western blotting and in vitro kinase assay using purified glycogen synthase kinase 3β (GSK-3β) as the substrate, respectively.
To measure Akt kinase activities, 200 μg of whole cell lysates were used in an in vitro Akt kinase assay using a Cell Signaling kit (Beverly, Mass.). Briefly, Akt was immunoprecipitated using the immobilized Akt antibody, followed by an in vitro kinase assay at 30° C. for 1 hour using 1 μg of the purified GSK-3β fusion protein as the substrate. The kinase reaction was terminated with 3× loading buffer and heated at 95° C. for 3 mins. […] Membranes were developed as described above. In all cases, band intensities were quantified by Image J (National Institute of Health, Bethesada, Md.).

[2] = test system: Akt kinase activity; test: Akt kinase sensor complemented FL activity, bioluminescence imaging of intact 293T/AS1T and 293T/AS1A stable cells; assay type: cell-based, human
Method: Complemented FL activity at each time point was determined by bioluminescence imaging of intact cells by addition of D-luciferin (FIG. 7a), prior to normalization for protein content (FIG. 7b).
FL activities in intact cells were determined by bioluminescence imaging of intact cells as described above. Cells were lysed in 1% NP40 buffer (Cell Signaling, Beverly, Mass.) for 15 mins on ice followed by centrifugation at 1×10^4 g to remove cell debris. Protein concentrations were determined by Biorad protein Dc assay (Biorad). FL activities were normalized to protein content and then to that of carrier control treated cells and expressed as normalized FL activity±standard error of means (S.E.M.)

CCCCCCCCCCCCCCCCCCOP(=O)([O-])OC1CC[N+](C)(C)CC1 [perifosine]
amount of phosphorylated GSK-3β ([1]; 293T/AS1A cells): decreased | amount of phosphorylated GSK-3β ([1]; 293T/AS1T cells, relative to carrier control): decreased | complemented FL activity ([2]; 293T/AS1T at all time points (6, 12, 24 hours) and concentrations tested, compared to 293T/AS1A, p<0.05): dose-dependent increase | time of maximum increase in complemented FL activity ([2]; 293T/AS1T cells): 6 h | complemented FL activity after washout (reversibility) ([2]; 293T/AS1T, drug then carrier control, vs carrier control then drug or drug throughout, LY 50 μM 24+24 hours, perifosine 25 μM 6+6 hours): significantly lower
